What all share (type): cell-based, human
Assay [1] has as its system PSCs. As to the kind of experiment: Real-time qPCR of GPR68 expression in PSCs incubated with TNFα and NF-κB inhibitors. As to conditions: 6 h, TNFα 50 ng/mL; MG-132 20 μM, IKK2 inhibitor VI 5 μM, JSH-23 20 μM, CAY10512 0.3 μM. An excerpt: (§1) FIGS. 3A-3D show co-culture of PDAC cells and PSCs increases expression by PSCs of GPR68 and fibrotic genes, effects mediated by TNFα and TGFβ, respectively. […] Relative expression was compared by 2^(ΔCt control-ΔCtco-culture). Data are mean±SEM, n=3, unpaired t test, *p<0.05, **p<0.01, ***p<0.001, ****p<0.0001. […] Relative expression was compared by 2^(ΔCt control-ΔCtTGFβ1 or ΔCtTNFα). Data are mean±SEM, n=3, unpaired t test, *p<0.05, **p<0.01, ****p<0.0001. […] Relative expression was compared to control by 2(ΔCt control-ΔCtco-culture). Data are mean±SEM, n=3, unpaired t test, *p<0.05. […] Relative expression was normalized to control by 2(ΔCt^control-ΔCtTGFβ1 or ^ΔCtTNFα) n=3, data are mean±SEM, unpaired t test, *p<0.05, **p<0.01, ****p<0.0001.
(§2) RNA isolated using an RNeasy kit with DNase treatment (Qiagen) and converted to cDNA using an iScript cDNA Synthesis Kit (Bio-Rad, Irvine, Calif., USA). cDNA was mixed with gene-specific primers and SYBR green reagent (Quanta Biosciences, Gaithersburg, Md., USA) for PCR amplification using a DNA Engine Opticon 2 system (MJ Research, Waltham, Mass., USA). Primers were designed using Primer Premier 6 software (PREMIER Biosoft, Palo Alto, Calif., USA). Gene expression was quantified as ΔCt using 18S rRNA as the reference gene. Expression of different cells was compared as fold-change=2(AACt). RNA isolated using an RNeasy kit with DNase treatment (Qiagen) and converted to cDNA using an iScript cDNA Synthesis Kit (Bio-Rad, Irvine, Calif., USA). cDNA was mixed with gene-specific primers and SYBR green reagent (Quanta Biosciences, Gaithersburg, Md., USA) for PCR amplification using a DNA Engine Opticon 2 system (MJ Research, Waltham, Mass., USA). Primers were designed using Primer Premier 6 software (PREMIER Biosoft, Palo Alto, Calif., USA). Gene expression was quantified as ΔCt using 18S rRNA as the reference gene. Expression of different cells was compared as fold-change=2(AACt). […] Gene expression was quantified as ΔCt using 18S rRNA as the reference gene. […]

Assay [2] concerns CAFs. The experiment in a line: Real-time qPCR of GPR68 and IL-6 expression in CAFs at pH 6.8 with PKA or CREB inhibitors. As to conditions: CAFs cultured 6 h in pH 6.8 media, normalized to pH 7.4. On the procedure:
FIG. 6A show CAFs transfected with control or GPR68 siRNA were cultured in pH media for 30 min, treated with 1 mM IBMX for 10 min and cellular cAMP was measured by the HitHunter cAMP assay. Data are mean±SEM, n=3, two-way ANOVA, *p<0.05, ****p<0.0001. […] Results were normalized to those at pH 7.4. n=3, data are mean±SEM, unpaired t test, **p<0.01, ***p<0.001, ns=non-significant. […] Activation of CREB is shown as p-CREB/CREB. Data are mean±SEM, n=3, unpaired t test, *p<0.05. […] Results are normalized to those at pH 7.4. Data are mean±SEM, n=3, unpaired t test, **p<0.01, ***p<0.001, ns=non-significant.
as §2
The pH media are DMEM containing 5 g/L glucose, 20 mM HEPES, 20 mM NaHCO3, 2% FBS, 100 I.U./ml penicillin and 100 μg/ml streptomycin, pH adjusted by HCl or NaOH at room temperature. […] Cell viability were assessed by a CEllTiter-Glo Luminescent assay (Promega) and detected using a DXT 800 multimode plate reader (Beckman Coulter, Carlsbad, Calif., USA).
(Real-time PCR tracks product formation cycle by cycle.)

The test system of assay [3] is PSCs. The experiment in a line: Real-time qPCR of gene expression in PSCs incubated with TGFβ1 or TNFα. As to conditions: PSCs incubated 48 h with 50 ng/mL.
Source text: as §1
RNA isolated using an RNeasy kit with DNase treatment (Qiagen) and converted to cDNA using an iScript cDNA Synthesis Kit (Bio-Rad, Irvine, Calif., USA). cDNA was mixed with gene-specific primers and SYBR green reagent (Quanta Biosciences, Gaithersburg, Md., USA) for PCR amplification using a DNA Engine Opticon 2 system (MJ Research, Waltham, Mass., USA). Primers were designed using Primer Premier 6 software (PREMIER Biosoft, Palo Alto, Calif., USA). Gene expression was quantified as ΔCt using 18S rRNA as the reference gene. Expression of different cells was compared as fold-change=2(AACt). RNA isolated using an RNeasy kit with DNase treatment (Qiagen) and converted to cDNA using an iScript cDNA Synthesis Kit (Bio-Rad, Irvine, Calif., USA). cDNA was mixed with gene-specific primers and SYBR green reagent (Quanta Biosciences, Gaithersburg, Md., USA) for PCR amplification using a DNA Engine Opticon 2 system (MJ Research, Waltham, Mass., USA). Primers were designed using Primer Premier 6 software (PREMIER Biosoft, Palo Alto, Calif., USA). Gene expression was quantified as ΔCt using 18S rRNA as the reference gene. Expression of different cells was compared as fold-change=2(AACt). The primer sequences are: 18S-F: 5′-[…]-3′ (SEQ ID NO: 1); 18S-R: 5′-[…]-3′ (SEQ ID NO: 2); GPR68-F: 5′-CCTTCCGCTTCCACCAGTT-3′ (SEQ ID NO: 3); GPR68-R: 5′-TCGTCCTCGATGACCTCCT-3′ (SEQ ID NO: 4); ACTA2-F: 5′-[…]-3′ (SEQ ID NO: 5); ACTA2-R: 5′-[…]-3′ (SEQ ID NO: 6); COL1A1-F: 5′-[…]-3′ (SEQ ID NO: 7); COL1A1-R: 5′-[…]-3′ (SEQ ID NO: 8); IL6-F: 5′-[…]-3′ (SEQ ID NO: 9); IL6-R: 5′-[…]-3′ (SEQ ID NO: 10); COL3A1-F: 5′-GCTGGCTACTTCTCGCTCT-3′ (SEQ ID NO: 11); COL3A1-R: 5′-[…]-3′ (SEQ ID NO: 12); POSTN-F: 5′-[…]-3′ (SEQ ID NO: 13); POSTN-R: 5′-[…]-3′ (SEQ ID NO: 14); CTGF-F: 5′-[…]-3′ (SEQ ID NO: 15); CTGF-R: 5′-GCTACAGGCAGGTCAGTGA-3′ (SEQ ID NO: 16); PDGFRB-F: 5′-[…]-3′ (SEQ ID NO: 17); PDGFRB-R: 5′-[…]-3′ (SEQ ID NO: 18). Gene expression was quantified as ΔCt using 18S rRNA as the reference gene. We compared expression of different cells as fold-change=2(AACt).

Where a SMILES comes first, the peptide text is derived from it. The star is where a group is joined. Cbz = O=C(OCc1ccccc1)*

With `Cc1ccc(NCCCc2ccccc2)c(N)c1` [JSH-23], the “TNFα-promoted increase in GPR68 expression in PSCs” value (“TNFα-promoted increase” for short) in assay [1] is reported as “reduced”.
As for `O=C(Nc1ccc(Cl)cc1)c1cc2ccccc2cc1O` [naphthol AS-E], in assay [2], the “GPR68 expression in CAFs” value is “without altering” and the “pH 6.8-promoted increase in IL-6 expression by CAFs” value is recorded as “blunted”.
Take TNFα: in assay [3], the ACTA2 expression entry is recorded as “not higher” and the COL1A1 expression entry is “not higher”. Moreover, in assay [3] (higher vs control), the “expression of GPR68” value stood at 18 fold and the “expression of IL-6” value came out at 31 fold.
For the compound “TGFβ1: Transforming growth factor beta 1, a driver of PSC activation”, in assay [3], the ACTA2 expression result is reported as “increased expression” and the COL1A1 expression entry is on record as “increased expression”. Also, the GPR68 expression result in assay [3] (result in words) is “did not change”.
Regarding `CC(C)C[C@@H](C=O)NC(=O)[C@H](CC(C)C)NC(=O)[C@H](CC(C)C)NC(=O)OCc1ccccc1` [MG132] (Cbz-Leu-Leu-Leu-aldehyde), the “TNFα-promoted increase” value in assay [1] is “reduced”.
`NC(=O)Nc1sc(-c2ccccc2)cc1C(N)=O` [IKK2 inhibitor VI]: the “TNFα-promoted increase” value in assay [1] was “reduced”.
For the compound `O=S(=O)(NCCNC/C=C/c1ccc(Br)cc1)c1cccc2cnccc12` [H89], in assay [2], the “GPR68 expression in CAFs” value was “did not alter” and the “pH 6.8-promoted increase in IL-6 expression by CAFs” value is “blocked”.

The record behind these values is US11674963B2, “GPCRs in cancer-associated fibroblasts” (The Regents of the University of California, priority 2017, dated 2023).
